Data: the Kinase Knowledgebase extract (Sharma et al. 2016)

Target: EGFR (UniProt P00533)
Assay: Inhibition of EGFR Kinase Activity

Chain of EGFR (P00533 whole entry, looked up): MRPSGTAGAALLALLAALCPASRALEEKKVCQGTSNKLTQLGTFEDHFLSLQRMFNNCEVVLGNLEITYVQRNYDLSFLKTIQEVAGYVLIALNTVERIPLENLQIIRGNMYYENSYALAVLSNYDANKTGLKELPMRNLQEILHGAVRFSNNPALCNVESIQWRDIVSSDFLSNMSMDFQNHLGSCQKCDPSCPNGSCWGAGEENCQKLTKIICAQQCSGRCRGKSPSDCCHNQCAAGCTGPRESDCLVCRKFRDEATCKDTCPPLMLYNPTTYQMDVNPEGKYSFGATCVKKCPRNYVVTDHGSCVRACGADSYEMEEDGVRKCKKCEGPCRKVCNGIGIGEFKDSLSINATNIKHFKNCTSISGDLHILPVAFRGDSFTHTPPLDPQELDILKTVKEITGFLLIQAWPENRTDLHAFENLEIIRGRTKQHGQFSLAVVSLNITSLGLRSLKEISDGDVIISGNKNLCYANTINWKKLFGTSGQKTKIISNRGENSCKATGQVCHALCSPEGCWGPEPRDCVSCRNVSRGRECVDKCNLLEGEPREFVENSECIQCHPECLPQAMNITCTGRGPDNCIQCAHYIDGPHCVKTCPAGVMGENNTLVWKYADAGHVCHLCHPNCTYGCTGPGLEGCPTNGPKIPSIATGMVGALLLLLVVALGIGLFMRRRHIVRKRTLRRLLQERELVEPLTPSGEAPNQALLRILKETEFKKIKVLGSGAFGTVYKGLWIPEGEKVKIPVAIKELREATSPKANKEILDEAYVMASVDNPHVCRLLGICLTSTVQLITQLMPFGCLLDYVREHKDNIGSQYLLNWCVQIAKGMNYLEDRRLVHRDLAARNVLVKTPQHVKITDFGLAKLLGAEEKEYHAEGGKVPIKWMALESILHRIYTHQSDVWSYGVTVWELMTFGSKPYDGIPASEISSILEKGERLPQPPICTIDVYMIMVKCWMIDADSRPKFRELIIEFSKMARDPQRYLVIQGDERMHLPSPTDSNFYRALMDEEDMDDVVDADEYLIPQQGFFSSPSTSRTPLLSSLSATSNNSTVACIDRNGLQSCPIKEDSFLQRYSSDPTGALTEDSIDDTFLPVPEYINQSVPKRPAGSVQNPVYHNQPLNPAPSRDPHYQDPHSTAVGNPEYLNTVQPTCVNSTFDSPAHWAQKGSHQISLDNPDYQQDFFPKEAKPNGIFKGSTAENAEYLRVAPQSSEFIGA

Compound `C=CC(=O)Nc1cccc(Nc2ncnc(N(C)c3ccc(OCCO)cc3)n2)c1` has an IC50 of less than 50 µM.
`C=CC(=O)Nc1ccc(Nc2ncnc(N(C)c3cccc4ccccc34)n2)cc1` showed an IC50 of less than 50 µM.
Compound `C#Cc1cccc(Nc2ncnc(Nc3cccc(NC(=O)C=C)c3)n2)c1` has an IC50 of less than 50 µM.
With `C=CC(=O)N(CCCN1CCOCC1)c1cccc(Nc2ncnc(Nc3ccc(C(=O)OC)cc3)n2)c1` the IC50 was less than 50 µM.
`C=CC(=O)Nc1cccc(Nc2ncnc(N(C)n3c(=O)n(C(=O)C(C)(C)C)c4ccccc43)n2)c1` was tested, and the IC50 was less than 50 µM.
Work on `C=CCN(c1ncnc(Nc2ccc(NC(=O)C=C)cc2)n1)n1c(=O)[nH]c2ccccc21` yielded an IC50 of less than 50 µM.
`C=CCN(c1ccc(OC)c(OCCOC)c1)c1ncnc(Nc2cccc(NC(=O)C=C)c2)n1` was tested, and the IC50 was less than 50 µM.
Compound `C=CCN(c1ccc(OC)c(OC)c1)c1ncnc(Nc2cccc(NC(=O)C#CC)c2)n1` has an IC50 of less than 50 µM.
In the case of `CC#CC(=O)Nc1cccc(Nc2ncnc(N(CC)c3ccc(OC)c(OCCOC)c3)n2)c1`, the IC50 is reported as less than 50 µM.
Work on `CC#CC(=O)Nc1cccc(Nc2ncnc(Nc3cc(OC)c(OC)c(OCCN4CCOCC4)c3)n2)c1` yielded an IC50 of less than 50 µM.
Compound `C=CCN(c1cccc(Cl)c1)c1ncnc(Nc2cccc(NC(=O)C#CC)c2)n1` has an IC50 of less than 50 µM.
For `C=CC(=O)N(CCCN1CCOCC1)c1cccc(Nc2ncnc(Nc3ccc(OC)c(OC)c3)n2)c1`, the IC50 was less than 50 µM.
For `C=CCN(c1cccc(S(=O)(=O)c2ccc([N+](=O)[O-])cc2)c1)c1ncnc(Nc2cccc(NC(=O)C=C)c2)n1`, the IC50 was less than 50 µM.
In the case of `C=CCN(c1ncnc(Nc2ccc(NC(=O)C=C)cc2)n1)c1cccc2ccccc12`, the IC50 is reported as less than 50 µM.
With `C=CC(=O)Nc1ccc(Nc2ncnc(N(CC)c3ccc4c(cnn4Cc4ccccc4)c3)n2)cc1` the IC50 was less than 50 µM.
Work on `C=CC(=O)Nc1cc(Nc2ncnc(Nc3ccc4c(cnn4Cc4ccccc4)c3)n2)ccc1OCCCC1CCN(C)CC1` yielded an IC50 of less than 50 µM.
In the case of `C=CC(=O)N1CCc2ccc(Nc3ncnc(Nc4ccc5c(cnn5Cc5ccccc5)c4)n3)cc21`, the IC50 is reported as less than 50 µM.
For `C=CCN(c1ccc(OCCOC)c(OC)c1)c1ncnc(Nc2cccc(NC(=O)C=C)c2)n1`, the IC50 was less than 50 µM.
`C=CC(=O)Nc1ccc(Nc2ncnc(N(CC)c3ccc(OCCC)c(OCCC)c3)n2)cc1` gave an IC50 of less than 50 µM.
For `CC#CC(=O)Nc1cccc(Nc2ncnc(N(CC)c3cccc(Cl)c3)n2)c1`, the IC50 was less than 50 µM.
Compound `C=CCN(c1cccc(Cl)c1)c1ncnc(Nc2ccc(NC(=O)C=C)cc2)n1` has an IC50 of less than 50 µM.
For `CC#CC(=O)Nc1cccc(Nc2ncnc(Nc3cccc(C)c3)n2)c1`, the IC50 was less than 50 µM.
Compound `CC#CC(=O)Nc1cccc(Nc2ncnc(N(C)c3ccc(OCc4ccccc4)c(Cl)c3)n2)c1` has an IC50 of less than 50 µM.
In the case of `C=CCN(c1ccc(OCCO)cc1)c1ncnc(Nc2cccc(NC(=O)C#CC)c2)n1`, the IC50 is reported as less than 50 µM.
For `C=CC(=O)Nc1ccc(Nc2ncnc(Nc3cccc(OCCOC)c3)n2)cc1`, the IC50 was less than 50 µM.
With `C=CC(=O)Nc1ccc(Nc2ncnc(Nc3ccc(OC)cc3)n2)cc1` the IC50 was less than 50 µM.
`CC#CC(=O)Nc1cccc(Nc2ncnc(NC3CC3c3ccccc3)n2)c1` (stereo not drawn) showed an IC50 of less than 50 µM.
Work on `C=CCN(c1ncnc(Nc2cccc(NC(=O)C#CC)c2)n1)n1c(=O)[nH]c2ccccc21` yielded an IC50 of less than 50 µM.
`C=CC(=O)Nc1cccc(Nc2ncnc(N(C)c3cc(Cl)cc4ccccc34)n2)c1` gave an IC50 of less than 50 µM.
For `C=CC(=O)Nc1cccc(Nc2ncnc(N(CC)c3cccc4ccccc34)n2)c1`, the IC50 was less than 50 µM.
`CC#CC(=O)Nc1cc(Nc2ncnc(N(C)c3ccc(OCc4ccccc4)c(Cl)c3)n2)ccc1OCCCC1CCN(C)CC1` showed an IC50 of less than 50 µM.
Work on `C=CC(=O)Nc1ccc(Nc2ncnc(N(C)c3cccc(CC(=O)OC)c3)n2)cc1` yielded an IC50 of less than 50 µM.
`C=CC(=O)Nc1cccc(Nc2ncnc(N(C)c3ccc4c(cnn4Cc4ccccc4)c3)n2)c1` gave an IC50 of less than 50 µM.
For `C=CCN(c1ccc(F)c(Cl)c1)c1ncnc(Nc2ccc(NC(=O)C=C)cc2)n1`, the IC50 was less than 50 µM.
`CC#CC(=O)Nc1cccc(Nc2ncnc(N(CC)n3c(=O)[nH]c4ccccc43)n2)c1` gave an IC50 of less than 50 µM.
`C=CC(=O)Nc1ccc(Nc2ncnc(N(C)c3cccc(S(=O)(=O)c4ccc([N+](=O)[O-])cc4)c3)n2)cc1` gave an IC50 of less than 50 µM.
With `C=CC(=O)Nc1cc(Nc2ncnc(N(C)c3ccc4c(cnn4Cc4ccccc4)c3)n2)ccc1OC` the IC50 was less than 50 µM.
For `C=CCN(c1ccc(OCc2ccccc2)cc1)c1ncnc(Nc2cccc(NC(=O)C=C)c2)n1`, the IC50 was less than 50 µM.
Work on `C=CC(=O)Nc1cccc(Nc2ncnc(Nc3cc(OC)c(OC)c(OC)c3)n2)c1` yielded an IC50 of less than 50 µM.
Compound `C=CC(=O)Nc1cc(Nc2ncnc(Nc3ccc(OCc4ccccc4)c(Cl)c3)n2)ccc1OCCCC1CCN(C)CC1` has an IC50 of less than 50 µM.
For `C=CC(=O)Nc1ccc(Nc2ncnc(Nn3c(=O)n(C(=O)C(C)(C)C)c4ccccc43)n2)cc1`, the IC50 was less than 50 µM.
`C=CC(=O)Nc1ccc(Nc2ncnc(N(CC)c3cc(Cl)ccc3C)n2)cc1` was tested, and the IC50 was less than 50 µM.
`C=CC(=O)Nc1ccc(Nc2ncnc(N(C)c3cccc(C)c3)n2)cc1` was tested, and the IC50 was less than 50 µM.
`C=CC(=O)Nc1ccc(Nc2ncnc(N(C)c3ccc(OC)c(OCCOC)c3)n2)cc1` showed an IC50 of less than 50 µM.
`C=CC(=O)Nc1cccc(Nc2ncnc(N(C)c3ccc(OC)c(OC)c3)n2)c1` showed an IC50 of less than 50 µM.
In the case of `C/C=C/C(=O)Nc1cccc(Nc2ncnc(NC3CC3c3ccccc3)n2)c1` (stereo not drawn), the IC50 is reported as less than 50 µM.
With `CC#CC(=O)Nc1cccc(Nc2ncnc(N(C)c3ccc(OCCC)c(OCCC)c3)n2)c1` the IC50 was less than 50 µM.
For `C=CC(=O)Nc1ccc(Nc2ncnc(Nc3ccc(OCC)c(OCC)c3)n2)cc1`, the IC50 was less than 50 µM.
